Measured values as given in US7115721B2, “Microorganism, its product and utilization thereof” (Astellas Pharma Inc., priority 2002, dated 2006).
pIC50: −log10 of the molar value. Values after ≈ are worked out from the molar mass of the structure shown. Read-outs that look alike come from different tables or passages of the source.

Columns and labels:
[1] = tested on: B16 melanoma (B-16/2D2 cells); assay: Inhibitory activity to melanogenesis of B16 melanoma (extracellular and intracellular melanin, amount of proteins); assay type: cell-based; conditions: for IC50: Mus musculus, B16, 120 h
Experimental: Inhibitory Activity to Melanogenesis of B16 Melanoma
(§1) About 2.0×10^5/ampoule B16 melanoma cell strain preserved in a frozen state in liquid nitrogen was dissolved in a water bath at 37° C. and immediately suspended in 10 ml of a culture medium. After centrifugation at 800 rpm for five minutes, the supernatant liquid was discarded and the cells were suspended in 10 ml of a fresh culture medium. The suspension was again centrifuged under the same conditions, the supernatant liquid was discarded, and the cells were again suspended in a fresh culture medium.
(§2) About 4.0×10^5 cells were seeded in a 75 cm^2 flask. The cells were cultured at 37° C. in a 5% CO2 atmosphere for one week while replacing the medium every 2–3 days. The culture medium in which the cells have grown to bring the medium into a subconfluent state was discarded. The surface of the cultured cells was washed with PBS(−), following which the cells were stripped using 0.25% trypsin. A medium containing serum was added to terminate the trypsin reaction. After loosening the cells by pipetting, the cell suspension was transferred to a centrifugal tube. After centrifugation at 800 rpm for five minutes, the supernatant liquid was discarded and the cells were suspended in a fresh culture medium (not containing phenol red). The number of cells was counted using a cytometer.
The cell suspension was diluted with a medium (not containing phenol red) to make the cell concentration 2×10^5 cells/ml. The resulting suspension was seeded in a 96-well plate in an amount of 100 μl/well. The cells were incubated at 37° C. in a 5% CO2 atmosphere for one day. Solutions of the compound (I) of the present invention at various concentrations were prepared in a medium (not containing phenol red). The resulting solutions were added to a 96-well plate in an amount of 100 μl/well. The cells were incubated at 37° C. in a 5% CO2 atmosphere for five days and evaluated according to the following method.
1. Amount of Extracellular Melanin
The culture medium was transferred to an assay plate in an amount of 150 μl/well while taking care so that foam was not produced to measure OD450 using a microplate reader.
2. Amount of Intracellular Melanin
The plate containing the cells was inverted to discard the remaining culture medium. 0.1 N NaOH-0.1% Triton X-100 was added in an amount of 150 μl/well to dissolve the cells by pipetting. The culture medium was transferred to an assay plate in an amount of 100 μl/well to measure OD450 using a microplate reader.
Distilled water was added to the assay plate in an amount of 156 μl/well. Then, 4 μl/well of the cell solution remaining after measuring the amount of intracellular melanin was added. Next, 40 μl/well of a Bio-rad protein assay die solution was added, followed by shaking for two minutes. After allowing to stand for five minutes, OD590 was measured using a microplate reader.

[2] = target: T1, tyrosinase originating from B16 melanoma (Mus musculus, UniProt P11344); assay: Inhibitory activity to tyrosinase originating from B16 melanoma; assay type: biochemical; conditions: crude enzyme solution, L-dopa substrate, pH 6.8, 25° C., two hours
T1 construct: The supernatant liquid was collected and preserved in ice until the time it was used (crude enzyme solution); endogenous in cells; host or cells: B16 melanoma cells, homogenate supernatant (crude enzyme solution)
T1 sequence (P11344 19-533): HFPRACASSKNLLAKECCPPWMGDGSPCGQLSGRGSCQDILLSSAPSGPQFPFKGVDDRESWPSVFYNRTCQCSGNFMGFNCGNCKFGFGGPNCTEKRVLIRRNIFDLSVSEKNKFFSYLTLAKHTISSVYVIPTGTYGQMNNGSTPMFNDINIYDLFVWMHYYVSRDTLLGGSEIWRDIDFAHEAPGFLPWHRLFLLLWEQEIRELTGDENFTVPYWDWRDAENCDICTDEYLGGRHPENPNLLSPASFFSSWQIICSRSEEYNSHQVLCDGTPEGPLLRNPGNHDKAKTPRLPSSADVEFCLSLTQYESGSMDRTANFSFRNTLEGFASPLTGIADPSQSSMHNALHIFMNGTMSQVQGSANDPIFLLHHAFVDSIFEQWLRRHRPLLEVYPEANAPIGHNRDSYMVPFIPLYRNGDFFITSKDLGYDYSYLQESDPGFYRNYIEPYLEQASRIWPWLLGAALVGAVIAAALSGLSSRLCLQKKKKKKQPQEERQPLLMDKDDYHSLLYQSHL
Experimental: Inhibitory Activity to Tyrosinase Originating from B16 Melanoma
as §1
as §2, with “After centrifugation at 800 rpm for five minutes, the supernatant liquid was discarded and the cells were suspended in a fresh culture medium (not containing phenol red).” left out, “cytometer. […]” for “cytometer.”
L-dopa was adjusted to a concentration of 0.8 mg/ml with the 0.05 M phosphate buffer (pH 6.8). […] Then, the absorption at 475 nm was measured.

[3] = tested on: melanin pigmentation of skin after exposure to sunlight; assay: Whitening effect on skin of subjects exposed to sunlight; assay type: in vivo, human; conditions: for Whitening effect: applied morning and evening over four weeks, 20 subjects
Experimental: The whitening effect of the compound (I) of the present invention was measured according to the following method. 20 subjects were exposed to sunlight for […] from 11:00 a.m. to 1:00 p.m. over two days in summer. Five days after the exposure to sunlight, a water phase and an alcohol phase having compositions respectively shown in FIG. 5 and FIG. 6 were mixed and dissolved, and the solution was applied to the skin on the medial side of the upper arm of each exposed subject once for every morning and evening over four weeks. [table] [table] After four weeks, the whitening effect was judged for each subject. The effect was judged according to the following standards.

[4] = target: Tyrosinase originating from mushroom; assay: Inhibitory activity to tyrosinase originating from mushroom; assay type: biochemical; conditions: L-dopa substrate, pH 6.8, 25° C., 10 minutes
Experimental: Inhibitory Activity to Tyrosinase Originating from Mushroom Tyrosinase originating from mushroom (Sigma company) was dissolved in a 0.05 M phosphate buffer (pH 6.8) to a concentration of 20 U/ml. L-dopa was adjusted to a concentration of 0.3 mg/ml with a 0.05 M phosphate buffer (pH 6.8). A 96-well plate was charged with 30 μl of the L-dopa solution and 30 μl of solutions of the compound (I) of the present invention at various concentrations, immediately followed by mixing with 30 μl of the tyrosinase solution originating from mushroom. After incubation at 25° C. for 10 minutes, the absorbance at 450 nm was measured using a microplate reader.

[5] = concentration in which whitening actions were clearly exhibited

SMILES	IC50 ([1]; read-out: IC50 Extracellular melanogenesis)	IC50 ([1]; read-out: IC50 Intracellular melanogenesis)	IC50 ([1]; read-out: IC50 Protein synthesis)	Effects on the amount of proteins in the cells [1, 5]	Effects on the number of grown cells [1, 5]	Morphological changes in the cells by microscopic inspection [1, 5]	pIC50 [2]	Whitening effect ([3]; 0.1 wt % test agent)	Whitening effect ([3]; 0.3 wt % test agent)	Abnormalities of the skin (erythema, edema) or side effects ([3]; topical application over four weeks in subjects)	IC50 Mushroom tyrosinase [4]	Whitening effect ([3]; 1.0 wt % test agent)
[C-]#[N+]/C=C/c1ccc(O[C@@H]2O[C@@H](C)[C@H](O)[C@@H](O)[C@H]2O)cc1 [Compound (I), (E)-4-(2-isocyanovinyl)phenyl α-L-rhamnopyranoside]	0.052 µg/mL (≈ 0.179 µM)	0.074 µg/mL (≈ 0.254 µM)	0.9 µg/mL (≈ 3.09 µM)	nor were there any effects	nor were there any effects	no morphological changes	8.73	Good (50–80% of subjects exhibited a complete response or partial response)	Good (50–80% of subjects exhibited a complete response or partial response)	neither abnormalities of the skin, such as erythema or edema, nor any side effects	0.0019 µg/mL (≈ 0.00652 µM)	
Oc1ccc(O)cc1 [Hydroquinone, reference compound]												Good (50–80% of subjects exhibited a complete response or partial response)
O=c1cc(CO)occ1O [Kojic acid, reference compound]												Fair (30–50% of subjects exhibited a complete response or partial response)
